From patent US10370339B2, “N-Methylbenzimidazoles as mIDH1 inhibitors” (BAYER PHARMA AKTIENGESELLSCHAFT, priority 2015, dated 2019)

The molecules below were run against IDH1 R132H enzyme (Homo sapiens (Human), UniProt O75874, R132H) (assay: Mutant IDH1 R132H biochemical assay). Settings: NADPH consumption, luminescent readout; 1.5 nM enzyme, 1 μM NADPH, 250 μM α-KG, 30 minutes, 32° C.
Description: Mutant IDH1 R132H Biochemical Assay mIDH1 catalyzes the NADPH-dependent reduction of alpha-ketoglutarate (a-KG) to (2R)-2-hydroxyglutarate (2-HG). NADPH consumption was measured by luminescent readout.
The biochemical reactions were performed at 32° C. in 384-well plates using a reaction volume of 41 μL and the following assay buffer conditions: 50 mM Tris pH 7.5, 100 mM NaCl, 20 mM MgCl2, 0.05% BSA, 0.01% Brij, 1 μM NADPH, and 250 μM α-KG. The IDH1 R132H enzyme was used in a final concentration of 1.5 nM. Test compounds were used in a concentration range between 0.002 and 10 μM. The final DMSO concentration was 2.4%.
The reaction was incubated for 30 minutes, then 40 μL of detection mix (0.75 μg/ml Luciferase, 0.02 U/ml Oxidoreductase, 4 μg/mL FMN, 2 μL/ml decanal/ethanol, 50 mM Tris pH 7.5, 0.5% Glycerin, 0.01% Tween-20, 0.05% BSA) was added. Luminescence was measured on a luminescent reader (10 seconds measuring time, 1 second integration period, 30% sensitivity). The decrease in luminescence is proportional to mIDH1 activity. IC50 values are determined by interpolation from plots of relative luminescence versus inhibitor concentration.

Sequence of IDH1 R132H enzyme (O75874 whole entry R132H): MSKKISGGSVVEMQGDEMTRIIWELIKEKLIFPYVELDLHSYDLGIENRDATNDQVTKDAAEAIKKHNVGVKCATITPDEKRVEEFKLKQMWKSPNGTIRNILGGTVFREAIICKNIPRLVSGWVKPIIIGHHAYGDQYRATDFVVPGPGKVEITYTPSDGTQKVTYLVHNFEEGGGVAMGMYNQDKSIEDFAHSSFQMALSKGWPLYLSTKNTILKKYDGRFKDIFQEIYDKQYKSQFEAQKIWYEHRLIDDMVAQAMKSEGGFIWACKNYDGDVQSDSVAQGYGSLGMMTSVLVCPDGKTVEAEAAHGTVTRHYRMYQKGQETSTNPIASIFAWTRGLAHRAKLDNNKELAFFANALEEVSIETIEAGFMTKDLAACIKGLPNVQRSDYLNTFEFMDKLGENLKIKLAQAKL

Structure (SMILES) | IC50 [nM]
COc1cc2c(cc1CCC(=O)O)nc(Nc1ccc(OC(F)(F)F)cc1)n2[C@@H]1C[C@H](C)CC[C@H]1C(C)C [Example 2-46, 3-(1-[(1R,2S,5R)-2-isopropyl-5-methylcyclohexyl]-6-methoxy-2-{[4-(trifluoromethoxy)phenyl]amino}-1H-benzimidazol-5-yl)propanoic acid] | 15
COc1cc2c(cc1CCC(=O)O)nc(Nc1ccc(OC(C)C)cc1)n2[C@@H]1C[C@H](C)CC[C@H]1C(C)C [Example 2-47] | 2800
CC(C)c1ccc(Nc2nc3cc(CC(=O)O)ccc3n2[C@@H]2C[C@H](C)CC[C@H]2C(C)C)cc1 [Example 2-32] | 11
COC(=O)CCc1ccc2c(c1)nc(Nc1ccc(OC(F)(F)F)cc1)n2[C@@H]1C[C@H](C)CC[C@H]1C(C)C [Example 2-19] | 95
COC(=O)Cc1ccc2c(c1)nc(Nc1ccc(C(C)C)cc1)n2[C@@H]1C[C@H](C)CC[C@H]1C(C)C [Example 2-11] | 80
COC(=O)CCc1ccc2c(c1)nc(Nc1ccc(C(C)C)cc1)n2[C@@H]1C[C@H](C)CC[C@H]1C(C)C [Example 2-20] | 130
COc1cc2c(cc1CC(=O)O)nc(Nc1ccc(OC(F)(F)F)cc1)n2[C@@H]1C[C@H](C)CC[C@H]1C(C)C [Example 2-37] | 23
CC(C)[C@@H]1CC[C@@H](C)C[C@H]1n1c(Nc2ccc(OC(F)(F)F)cc2)nc2cc(CCC(=O)O)ccc21 [Example 2-40] | 15
Cc1cc2c(cc1C(=O)O)nc(Nc1ccc(OC(C)C)cc1)n2[C@@H]1C[C@H](C)CC[C@H]1C(C)C [Example 2-27] | 15
CC(C)[C@@H]1CC[C@@H](C)C[C@H]1n1c(Nc2ccc(OC(F)(F)F)cc2)nc2cc(C(=O)O)ccc21 [Example 2-22, 1-[(1R,2S,5R)-2-isopropyl-5-methylcyclohexyl]-2-{[4-(trifluoromethoxy)phenyl]-amino}-1H-benzimidazole-5-carboxylic acid] | 4
Cc1cc2c(cc1CC(=O)O)nc(Nc1ccc(OC(F)(F)F)cc1)n2[C@@H]1C[C@H](C)CC[C@H]1C(C)C [Example 2-34] | 6.3
COC(=O)Cc1cc2nc(Nc3ccc(C(C)C)cc3)n([C@@H]3C[C@H](C)CC[C@H]3C(C)C)c2cc1OC [Example 2-17] | 68
COC(=O)Cc1cc2nc(Nc3ccc(OC(C)C)cc3)n([C@@H]3C[C@H](C)CC[C@H]3C(C)C)c2cc1C [Example 2-15] | 80
Cc1cc2c(cc1C(=O)O)nc(Nc1ccc(C(C)C)cc1)n2[C@@H]1C[C@H](C)CC[C@H]1C(C)C [Example 2-26] | 7.5
COC(=O)Cc1cc2nc(Nc3ccc(OC(F)(F)F)cc3)n([C@@H]3C[C@H](C)CC[C@H]3C(C)C)c2cc1OC [Example 2-16] | 70
CC(C)Oc1ccc(Nc2nc3cc(CCC(=O)O)ccc3n2[C@@H]2C[C@H](C)CC[C@H]2C(C)C)cc1 [Example 2-42] | 12
COC(=O)c1ccc2c(c1)nc(Nc1ccc(OC(F)(F)F)cc1)n2[C@@H]1C[C@H](C)CC[C@H]1C(C)C [Example 2-1, methyl 1-[(1R,2S,5R)-2-isopropyl-5-methylcyclohexyl]-2-{[4-(trifluoromethoxy)-phenyl]amino}-1H-benzimidazole-5-carboxylate] | 120
COC(=O)Cc1cc2nc(Nc3ccc(C(C)C)cc3)n([C@@H]3C[C@H](C)CC[C@H]3C(C)C)c2cc1C [Example 2-14] | 35
Cc1cc2c(cc1C(=O)O)nc(Nc1ccc(OC(F)(F)F)cc1)n2[C@@H]1C[C@H](C)CC[C@H]1C(C)C [Example 2-25] | 8
CC(C)Oc1ccc(Nc2nc3cc(CC(=O)O)ccc3n2[C@@H]2C[C@H](C)CC[C@H]2C(C)C)cc1 [Example 2-33] | 45
COC(=O)CCc1cc2nc(Nc3ccc(C(C)C)cc3)n([C@@H]3C[C@H](C)CC[C@H]3C(C)C)c2cc1OC [Example 2-45] | 180
COC(=O)c1ccc2c(c1)nc(Nc1ccc(C(C)C)cc1)n2[C@@H]1C[C@H](C)CC[C@H]1C(C)C [Example 2-2] | 65

Structure (SMILES) | IC50 [nM]
CC(C)Oc1ccc(Nc2nc3cc(C(=O)O)ccc3n2[C@@H]2C[C@H](C)CC[C@H]2C(C)C)cc1 [Example 2-24] | 13
COC(=O)c1cc2nc(Nc3ccc(OC(F)(F)F)cc3)n([C@@H]3C[C@H](C)CC[C@H]3C(C)C)c2cc1OC [Example 2-7] | 100
COC(=O)Cc1cc2nc(Nc3ccc(OC(F)(F)F)cc3)n([C@@H]3C[C@H](C)CC[C@H]3C(C)C)c2cc1C [Example 2-13] | 45
Cc1cc2c(cc1CC(=O)O)nc(Nc1ccc(OC(C)C)cc1)n2[C@@H]1C[C@H](C)CC[C@H]1C(C)C [Example 2-36] | 30
COC(=O)CCc1ccc2c(c1)nc(Nc1ccc(OC(C)C)cc1)n2[C@@H]1C[C@H](C)CC[C@H]1C(C)C [Example 2-21] | 380
COC(=O)c1cc2nc(Nc3ccc(OC(C)C)cc3)n([C@@H]3C[C@H](C)CC[C@H]3C(C)C)c2cc1C [Example 2-6] | 220
COC(=O)CCc1cc2nc(Nc3ccc(OC(F)(F)F)cc3)n([C@@H]3C[C@H](C)CC[C@H]3C(C)C)c2cc1OC [Example 2-43, methyl 3-(1-[(1R,2S,5R)-2-isopropyl-5-methylcyclohexyl]-6-methoxy-2-{[4-(tri-fluoromethoxy)phenyl]amino}-1H-benzimidazol-5-yl)propanoate] | 190
COC(=O)Cc1ccc2c(c1)nc(Nc1ccc(OC(F)(F)F)cc1)n2[C@@H]1C[C@H](C)CC[C@H]1C(C)C [Example 2-10] | 120
COC(=O)c1cc2nc(Nc3ccc(C(C)C)cc3)n([C@@H]3C[C@H](C)CC[C@H]3C(C)C)c2cc1OC [Example 2-8] | 130
COC(=O)Cc1cc2nc(Nc3ccc(OC(C)C)cc3)n([C@@H]3C[C@H](C)CC[C@H]3C(C)C)c2cc1OC [Example 2-18] | 120
COc1cc2c(cc1C(=O)O)nc(Nc1ccc(C(C)C)cc1)n2[C@@H]1C[C@H](C)CC[C@H]1C(C)C [Example 2-29] | 13
COC(=O)c1ccc2c(c1)nc(Nc1ccc(OC(C)C)cc1)n2[C@@H]1C[C@H](C)CC[C@H]1C(C)C [Example 2-3] | 200
Cc1cc2c(cc1CC(=O)O)nc(Nc1ccc(C(C)C)cc1)n2[C@@H]1C[C@H](C)CC[C@H]1C(C)C [Example 2-35] | 8.3
COC(=O)c1cc2nc(Nc3ccc(C(C)C)cc3)n([C@@H]3C[C@H](C)CC[C@H]3C(C)C)c2cc1C [Example 2-5] | 40
COC(=O)Cc1ccc2c(c1)nc(Nc1ccc(OC(C)C)cc1)n2[C@@H]1C[C@H](C)CC[C@H]1C(C)C [Example 2-12] | 300
COc1cc2c(cc1CC(=O)O)nc(Nc1ccc(C(C)C)cc1)n2[C@@H]1C[C@H](C)CC[C@H]1C(C)C [Example 2-38] | 12
COc1cc2c(cc1C(=O)O)nc(Nc1ccc(OC(F)(F)F)cc1)n2[C@@H]1C[C@H](C)CC[C@H]1C(C)C [Example 2-28] | 16
COC(=O)c1cc2nc(Nc3ccc(OC(C)C)cc3)n([C@@H]3C[C@H](C)CC[C@H]3C(C)C)c2cc1OC [Example 2-9] | 280
CC(C)c1ccc(Nc2nc3cc(C(=O)O)ccc3n2[C@@H]2C[C@H](C)CC[C@H]2C(C)C)cc1 [Example 2-23] | 6.3
COC(=O)CCc1cc2nc(Nc3ccc(OC(C)C)cc3)n([C@@H]3C[C@H](C)CC[C@H]3C(C)C)c2cc1OC [Example 2-44] | 620
CC(C)c1ccc(Nc2nc3cc(CCC(=O)O)ccc3n2[C@@H]2C[C@H](C)CC[C@H]2C(C)C)cc1 [Example 2-41] | 12
COc1cc2c(cc1CC(=O)O)nc(Nc1ccc(OC(C)C)cc1)n2[C@@H]1C[C@H](C)CC[C@H]1C(C)C [Example 2-39] | 70

These molecules were tested against Mutant IDH1 (LN229 R132H cells) (Homo sapiens (Human), UniProt O75874, R132H) (assay: Mutant IDH1 cellular assay (2-HG levels in medium of LN229 R132H cells)). Settings: 2-HG production in LN229 R132H cells, 24 hours incubation, fluorescence readout.
Format: cell-based
Description: Levels of (2R)-2-hydroxyglutarate (2HG) were measured in medium of a cell line with overexpression of mutated isocitrate dehydrogenase (mIDH) protein. mIDH catalyzes the NADPH-dependent reduction of alpha-ketoglutarate to 2-HG. Cells (LN229 R132H, Mohrenz et al., Apoptosis (2013) 18:1416-1425) were grown in DMEM containing 10% FCS. They were harvested by trypsin and seeded into 96-well plates. Cells were incubated overnight at 37° C. in 5% CO2. The next day test compounds were added to each cell well. The final concentration of DMSO was 0.1% and DMSO controls were included. The plates were then placed in an incubator for 24 hours.
2-HG was measured according to Balss et al. (Acta Neuropathol (2012) 124: 883-891). Briefly, HClO4 was added to each well and the plates were centrifuged. Aliquots are removed and incubated with hydroxyglutarate dehydrogenase (HGDH), diaphorase, NAD+, and resazurin. The conversion of resazurin to resorufin was detected by fluorescence spectroscopy at Ex 540 nm Em 600 nm. The increase in fluorescence is proportional to 2-HG production. IC50 values are determined by interpolation from plots of relative fluorescence vs inhibitor concentration.

Sequence of Mutant IDH1 (LN229 R132H cells) (O75874 whole entry R132H): as above

Structure (SMILES) | IC50 [nM]
COc1cc2c(cc1C(=O)O)nc(Nc1ccc(OC(C)C)cc1)n2[C@@H]1C[C@H](C)CC[C@H]1C(C)C [Example 2-30] | 84
COc1cc2c(cc1C(=O)O)nc(Nc1ccc(C(C)C)cc1)n2[C@@H]1C[C@H](C)CC[C@H]1C(C)C [Example 2-29] | 40
COc1cc2c(cc1C(=O)O)nc(Nc1ccc(OC(F)(F)F)cc1)n2[C@@H]1C[C@H](C)CC[C@H]1C(C)C [Example 2-28] | 38
